In PMC10525795, “Pharmacokinetics of Four Tyrosine Kinase Inhibitors in Adult and Paediatric Chronic Myeloid Leukaemia Patients” (Biomedicines, 2023):
Read-outs that look alike come from different tables or passages of the source.

Columns and labels:
p-glycoprotein (PGP) = system: p-glycoprotein (PGP); design: method as in PMID 28256516; conditions: cited from earlier work
[1] = Cerebrospinal fluid drug concentration at end of dosing interval (Ctrough), HPLC–UV, patients with CML; assay type: in vivo, human; conditions: for Cerebrospinal fluid concentrations, median (IQR): all sampled patients with CML on the drug
[2] = system: breast-cancer resistance protein (BRCP); design: method as in PMID 28256516; conditions: cited from earlier work
[3] = Plasma drug concentration at end of dosing interval (Ctrough), HPLC–UV, patients with CML; conditions: for Plasma concentrations, median (IQR): all sampled patients with CML on the drug
[4] = cited from earlier work
[5] = cited from earlier work; remark: listed apart in the source
[6] = cited from earlier work; remark: listed apart in the source
BCR–-ABL kinase = conditions: higher than imatinib; cited from earlier work

SMILES: Cc1nc(Nc2ncc(C(=O)Nc3c(C)cccc3Cl)s2)cc(N2CCN(CCO)CC2)n1 [Dasatinib]
- Substrate of PGP (p-glycoprotein (PGP)): substrate
- Cerebrospinal fluid concentrations, median (IQR) [1]: 0.11 (0.06–0.32) µg/mL
- Cerebrospinal fluid concentrations, median (IQR) ([1]; listed as dasatinib): 0.11 µg/mL
- Median CSF level, paediatrics ([1]; paediatric patients, N = 36): 0.11 µg/mL
- Substrate of BCRP [2]: substrate
- Median plasma concentration, adults ([3]; adult patients, N = 3): 0.4 µg/mL
- Plasma concentrations, median (IQR) [3]: 0.06 (0.03–0.33) µg/mL
- Plasma concentrations, median (IQR) ([3]; listed as dasatinib): 0.06 µg/mL
- Median plasma concentration, paediatrics ([3]; paediatric patients, N = 36): 0.05 µg/mL
- Patients with drug-related pulmonary hypertension ([4]; adults with CML who are imatinib-resistant/intolerant): 2%
- Patients with drug-related pulmonary hypertension ([4]; newly diagnosed adults with CML): 5%
- Blood–brain barrier crossing [5]: ability to cross the blood–brain barrier
- Average half-life [6]: 1.3 to 5 h
- Distribution volume [6]: > 3 L/kg
- Time of concentration peak after administration ([6]; oral): 0.5 to 3 h

SMILES: Cc1cn(-c2cc(NC(=O)c3ccc(C)c(Nc4nccc(-c5cccnc5)n4)c3)cc(C(F)(F)F)c2)cn1 [Nilotinib]
- Plasma concentrations, median (IQR) [3]: 0.19 (0.16–0.22) µg/mL
- Mean plasma concentration ([3]; two adult male patients): 190 ng/mL
- Strength of inhibition of tyrosine kinase protein's activity versus imatinib (BCR–-ABL kinase): 20–50 times
- Average half-life [6]: approximately 15 h
- Bioavailability ([6]; oral): approximately 30%
- Time of concentration peak after administration ([6]; oral): 3 h

SMILES: Cc1ccc(C(=O)Nc2ccc(CN3CCN(C)CC3)c(C(F)(F)F)c2)cc1C#Cc1cnc2cccnn12 [Ponatinib]
- Cerebrospinal fluid concentrations, median (IQR) [1]: 0.65 (0.18–1.65) µg/mL
- Cerebrospinal fluid concentrations, median (IQR) ([1]; listed as ponatinib): 0.65 µg/mL
- Half-life [6]: approximately 24 h
- Time of peak concentration after administration ([6]; oral): ≤ 6 h

SMILES: Cc1ccc(NC(=O)c2ccc(CN3CCN(C)CC3)cc2)cc1Nc1nccc(-c2cccnc2)n1 [Imatinib]
- Blood–brain barrier crossing [5]: ability to cross the blood–brain barrier
- Time of plasma peak ([6]; oral): 2 to 4 h
